Like-named read-outs stand apart in the source and are kept apart here.
Key:
[1] = test system: Arabidopsis thaliana cv. C24 plants; test: Depth of Arabidopsis root growth in growth medium after application of 6-chloronicotinic acid (6-CNA); assay type: in vivo; conditions: for Root depth, mean: after three weeks, untreated mean 2.031034
Description: Sterilization of Arabidopsis seeds: 2 min.
Low light overnight to 24 hours.
Plants are grown at 23° C. 30-50 μEinstein s^−1m^−2. 12 hours light-12 hours dark. (See FIG. 1)

[2] = test system: Arabidopsis thaliana cv. C24 plants; conditions: 0.7% Difco agar; for Root depth, mean: after three weeks, untreated mean 1.9475, *p < 0.01
Description: A container (1) with a seal (2) is filled with a transparent or translucent growth medium (3), such as 0.4% agar-water or 0.7% agar-water, to which additional test-compounds may be added. One pregerminated seed is added to the tube and allowed to grow for three weeks. After three weeks of growth in vertical position, the root depth (5) of the plant (4) is measured from the top of the medium to the lowest point of the roots.
Germination medium: Half concentrated Murashige and Skoog salts; B5 vitamins; 1.5% sucrose; pH 5.8; 0.4% Difco agar.
Sterilization of Arabidopsis seeds: 2 min. 70% ethanol; 10 min. bleach (6% active chlorine)+1 drop Tween 20 for 20 ml solution; wash 5 times with sterile tap water; sterilization is done in 2 ml eppendorf tubes. Arabidopsis seeds sink to the bottom of the tube, allowing removal of the liquids by means of a 1 ml pipetman.
Pregermination of seeds: In 9 cm Optilux Petridishes (Falcon) containing 10 ml sterile tap water. Low light overnight to 24 hours.
Growing of Arabidopsis plants: Seeds are sown in 25×150 mm glass tubes (Sigma C5916) with natural (transparent) colored closure (Sigma C5791) containing ±34 ml germination medium: 1 seed/tube. The tubes are put in the two outer rows of tube holders for 40 tubes (VWR nalg5970-0025) wrapped in aluminium foil so that the roots can grow in the dark. Plants are grown at 23° C. 30-50 μEinstein s^−1m^−2. 12 hours light-12 hours dark.
After three weeks, the root depth is measured from the surface of the medium to the lowest point of root growth.

## O=C(O)c1ccc(Cl)nc1 [6-CNA, 6-chloronicotinic acid]
[1]; 1 mg/L 6-CNA in germination medium, *p < 0.01
  Root depth, mean: 2.18 mm
[1]; 5 mg/L 6-CNA in germination medium, **p < 0.05
  Root depth, mean: 2.118 mm
[1]; 1 and 5 mg/l 6-CNA, three weeks
  Root protrusion into growth medium compared to non-treated plants: protruded deeper in the growth medium

## O=[N+]([O-])/N=C1\NCCN1Cc1ccc(Cl)nc1 [imidacloprid]
[2]; 50 mg/L imidacloprid in germination medium
  Root depth, mean: 2.1875 mm
[2]; 100 mg/L imidacloprid in germination medium
  Root depth, mean: 2.2725 mm
[2]; 50 and 100 mg/l imidacloprid, three weeks
  Root protrusion into growth medium compared to non-treated plants: protruded deeper in the growth medium

From US8143192B2, “Methods for increasing the resistance of plants to hypoxic conditions” (Bayer Cropscience N.V., priority 2005, dated 2012)
